Data reported in patent publication US11198692B2, “Dihydro-pyrrolo-pyridine derivatives” (Pfizer Inc., priority 2017, dated 2021).

Target: T1, Human M4 receptors (Homo sapiens, UniProt P08173)
T1 construct: expressed in transfected cells
T1 sequence (P08173 1-479): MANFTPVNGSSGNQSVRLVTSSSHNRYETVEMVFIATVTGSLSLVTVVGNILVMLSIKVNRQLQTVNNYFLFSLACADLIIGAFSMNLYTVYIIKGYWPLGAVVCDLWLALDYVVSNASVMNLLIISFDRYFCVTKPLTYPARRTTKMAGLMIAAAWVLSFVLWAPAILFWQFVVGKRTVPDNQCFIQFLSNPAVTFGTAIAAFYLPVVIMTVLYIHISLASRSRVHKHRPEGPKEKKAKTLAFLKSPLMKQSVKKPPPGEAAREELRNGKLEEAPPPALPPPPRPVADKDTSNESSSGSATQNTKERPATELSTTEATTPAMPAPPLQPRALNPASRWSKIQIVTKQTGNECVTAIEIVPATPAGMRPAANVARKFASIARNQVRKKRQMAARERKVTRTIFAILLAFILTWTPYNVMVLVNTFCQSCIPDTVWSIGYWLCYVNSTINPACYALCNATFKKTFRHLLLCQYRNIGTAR
Assay: M4 PAM cAMP assay (GloSensor)
Format: cell-based
Settings: HEK293 GloSensor cells expressing hM4, with EC20 acetylcholine and isoproterenol, geometric mean of 2-4 determinations unless footnoted (b: >=5, c: single); for Emax / EC50 Mean Asymptote Maximum (%): Emax = maximum asymptote of fitted dose response curve; for Emax: read-out: EC50 Mean Asymptote Maximum (%)
Description: The M4 cAMP assay was designed to determine the potency and efficacy of muscarinic positive allosteric modulators (PAMs). Human M4 receptors were stably expressed in Human embryonic kidney (HEK293) cells expressed with the Promega GloSensor™ cAMP technology.
HEK293 GloSensor cells expressing hM4 cells were cultured in growth media containing DMEM with 10% FBS, 1% Penicillin/Streptomycin, 500 μg/mL G418, 200 μg/mL Hygomycin B, and 1% Glutamax. When cells had grown to 80%-90% confluency, cells were harvested and seeded at a density of 25,000 cells/40 μL well, in a 384 white walled plates (Becton Dickinson 356661). Plates were incubated at 37 degrees C. and 5% CO2 for use after 24 hours.
Compound Preparation for Activator Screen:
Test compounds were initially prepared as 100% DMSO stock solutions, then transferred and serially diluted in 384-well compound plates (Matrix #4325). Each compound was tested at 10 concentrations in duplicate per experiment. Compound plates are spotted with 0.2 μL/well activator at 400 times the final assay concentration. Positive and negative controls for the compound alone activator response was 10 μM acetylcholine (Sigma # A2661) and DMSO, respectively. EC20 of acetylcholine was also used to define PAM activities.
Promega GloSensor™reagent (Promega # E1291) had previously been aliquotted. For each experiment, a stock solution of GloSensor™ was thawed out and equilibration medium was prepared with 88% CO2-independent media (Invitrogen #18045088), 10% fetal bovine serum and 2% GloSensor™ cAMP Reagent stock solution. Stock solution was mixed. Culture media in cell plates was discarded, then replaced with 40 μL/well pre-warmed equilibration media, then incubated in the dark at room temperature for 2 hours. During the incubation, stimulation media containing agonist and EC20 acetylcholine was prepared. CO2-independent media containing 50 […] Isoproterenol representing an EC80 of b-adrenergic receptor activity (Sigma #16504, 400 times final concentration) and EC20 acetylcholine in 1.25% DMSO was added to all columns of the compound plate, with the exception of column 12 to allow for EC0 control. […] Compounds are now 5 times the final assay concentration. The plate was mixed using a plate agitator. At the end of the 2 hour GloSensor™ incubation, add 10 μL of the CO2-independent media containing agonist, EC20 acetylcholine and isoproterenol to the cell plate. Cell plate was then incubated for 10 minutes at room temperature, and then read using an EnVision plate reader (Perkin Elmer).
Data was exported from the EnVision plate reader. The percent effect for each well was determined using the mean values for the positive and negative controls on each plate for each read, specifically 100*(compound−negative control)/(positive control−negative control). Dose response curves were fitted to the compound percent effect data using a 4-parameter logistic fit model. Data was reported as EC50 and Emax, with the Emax as the maximum asymptote of the fitted dose response curve.

Row | SMILES | Emax | EC50 | EC50 Mean Asymptote Maximum (%)
1 | Cc1c2c(c(=O)n(C)c1C)CN(C(=O)C[C@@H]1C[C@H]1c1cccnc1)C2 (single isomer, unassigned) [Example 26, 5,6,7-trimethyl-2-{[trans-2-(pyridin-3-yl)cyclopropyl]acetyl}-1,2,3,5-tetrahydro-4H-pyrrolo[3,4-c]pyridin-4-one] | 90.8% | 2.14 µM | 
2 | Cc1nc(C(F)F)c2c(c1C)CN(C(=O)CC1CN(c3ccnc(C(F)F)c3)C1)C2 [Example 39, 1-[4-(difluoromethyl)-6,7-dimethyl-1,3-dihydro-2H-pyrrolo[3,4-c]pyridin-2-yl]-2-{1-[2-(difluoromethyl)pyridin-4-yl]azetidin-3-yl}ethanone] | 101% | 0.032 µM | 
3 | CNc1nc(C)c(C)c2c1CN(C(=O)C[C@@H]1C[C@H]1c1ccc(F)cc1)C2 (single isomer, unassigned) [Example 41, 1-[6,7-dimethyl-4-(methylamino)-1,3-dihydro-2H-pyrrolo[3,4-c]pyridin-2-yl]-2-[trans-2-(4-fluorophenyl)cyclopropyl]ethanone] |  | 0.783 µM | 145^c %
4 | CNc1nc(C)c(C)c2c1CN(C(=O)CC1CN(c3ccnc(C(F)(F)F)c3)C1)C2C (single isomer, unassigned) [Example 43, 2-{1-[2-(trifluoromethyl)pyridin-4-yl]azetidin-3-yl}-1-[1,6,7-trimethyl-4-(methylamino)-1,3-dihydro-2H-pyrrolo[3,4-c]pyridin-2-yl]ethanone] |  | 3.67 µM | 152^c %
5 | CNc1nc(C)c(C)c2c1CN(C(=O)CCc1ccc(OC)cc1)C2 [Example 32, 1-[6,7-dimethyl-4-(methylamino)-1,3-dihydro-2H-pyrrolo[3,4-c]pyridin-2-yl]-3-(4-methoxyphenyl)propan-1-one] | 119% | 0.0247 µM | 
6 | Cc1nc(N(C)C)c2c(c1C)CN(C(=O)CC1CN(c3cncnc3)C1)C2 [Example 20, 1-[4-(dimethylamino)-6,7-dimethyl-1,3-dihydro-2H-pyrrolo[3,4-c]pyridin-2-yl]-2-[1-(pyrimidin-5-yl)azetidin-3-yl]ethanone] | 95.1% | 0.0304 µM | 
7 | Cc1ncc2c(c1C)CN(C(=O)CC1CN(c3cccnc3)C1)C2 [Example 52, 1-(6,7-dimethyl-1,3-dihydro-2H-pyrrolo[3,4-c]pyridin-2-yl)-2-[1-(pyridin-3-yl)azetidin-3-yl]ethanone] | 84.5% | 0.0361 µM | 
8 | Cc1nc(C(F)F)c2c(c1C)CN(C(=O)CC1CN(c3cccnc3)C1)C2 [Example 18, 1-[4-(difluoromethyl)-6,7-dimethyl-1,3-dihydro-2H-pyrrolo[3,4-c]pyridin-2-yl]-2-[1-(pyridin-3-yl)azetidin-3-yl]ethanone] | 91.7% | 0.0236 µM | 
9 | Cc1nc(-c2cnn(C)c2)c2c(c1C)CN(C(=O)CC1CN(c3cccnc3)C1)C2 [Example 13, 1-[6,7-dimethyl-4-(1-methyl-1H-pyrazol-4-yl)-1,3-dihydro-2H-pyrrolo[3,4-c]pyridin-2-yl]-2-[1-(pyridin-3-yl)azetidin-3-yl]ethanone] | 87.5% | 0.0206 µM | 
10 | CNc1nc(C)c(C)c2c1CN(C(=O)C1CC1)C2 [Example 58, cyclopropyl[6,7-dimethyl-4-(methylamino)-1,3-dihydro-2H-pyrrolo[3,4-c]pyridin-2-yl]methanone] | 96.2% | 0.0952 µM | 
11 | Cc1nc(CN(C)C)c2c(c1C)CN(C(=O)CC1CN(c3cccnc3)C1)C2 [Example 14, 1-{4-[(dimethylamino)methyl]-6,7-dimethyl-1,3-dihydro-2H-pyrrolo[3,4-c]pyridin-2-yl}-2-[1-(pyridin-3-yl)azetidin-3-yl]ethanone] | 99.4% | 0.0185 µM | 

The next compounds have a lower EC50 than those just listed; values first:

Row | Emax | EC50 | EC50 Mean Asymptote Maximum (%) | SMILES
12 | 96.8% | 0.00846 µM |  | CNc1nc(C)c(C)c2c1CN(C(=O)c1cnn(C)c1)C2 [Example 48, [6,7-dimethyl-4-(methylamino)-1,3-dihydro-2H-pyrrolo[3,4-c]pyridin-2-yl](1-methyl-1H-pyrazol-4-yl)methanone]
13 | 98.9% | 0.00835 µM |  | Cc1c2c(c(=O)n(C)c1C)CN(C(=O)CC1CN(c3ccnc(C(F)(F)F)c3)C1)C2 [Example 25, 5,6,7-trimethyl-2-({1-[2-(trifluoromethyl)pyridin-4-yl]azetidin-3-yl}acetyl)-1,2,3,5-tetrahydro-4H-pyrrolo[3,4-c]pyridin-4-one]
14 |  | 0.00677 µM | 121^c % | CNc1nc(C)c(C)c2c1CN(C(=O)C[C@@H]1C[C@H]1c1ccc(F)cc1)C2 (single isomer, unassigned) [Example 40, 1-[6,7-dimethyl-4-(methylamino)-1,3-dihydro-2H-pyrrolo[3,4-c]pyridin-2-yl]-2-[trans-2-(4-fluorophenyl)cyclopropyl]ethanone]
15 | 109% | 0.00645 µM |  | Cc1nc(N)c2c(c1C)CN(C(=O)C[C@@H]1C[C@H]1c1ccc(F)nc1)C2 (relative stereo) [Example 7, 1-(4-Amino-6,7-dimethyl-1,3-dihydro-2H-pyrrolo[3,4-c]pyridin-2-yl)-2-[trans-2-(6-fluoropyridin-3-yl)cyclopropyl]ethanone]
16 | 105% | 0.00356 µM |  | CNc1nc(C)c(C)c2c1CN(C(=O)C[C@@H]1C[C@H]1c1ccc(C)nc1)C2 (racemic) [Example 45, 1-[6,7-dimethyl-4-(methylamino)-1,3-dihydro-2H-pyrrolo[3,4-c]pyridin-2-yl]-2-[trans-2-(6-methylpyridin-3-yl)cyclopropyl]ethanone]
17 | 95.8% | 0.00176 µM |  | CNc1nc(C)c(C)c2c1CN(C(=O)CC1CN(c3cccnc3)C1)C2 [Example 4, 1-[6,7-Dimethyl-4-(methylamino)-1,3-dihydro-2H-pyrrolo[3,4-c]pyridin-2-yl]-2-[1-(pyridin-3-yl)azetidin-3-yl]ethanone]
18 | 95.9% | 0.0013 µM |  | CNc1nc(C)c(C)c2c1CN(C(=O)CC1CN(c3ccnc(C(F)(F)F)c3)C1)C2 [Example 34, 1-[6,7-dimethyl-4-(methylamino)-1,3-dihydro-2H-pyrrolo[3,4-c]pyridin-2-yl]-2-{1-[2-(trifluoromethyl)pyridin-4-yl]azetidin-3-yl}ethanone]
19 | 92.3% | 0.00123 µM |  | CNc1nc(C)c(C)c2c1CN(C(=O)CC1CN(c3cncnc3)C1)C2 [Example 19, 1-[6,7-dimethyl-4-(methylamino)-1,3-dihydro-2H-pyrrolo[3,4-c]pyridin-2-yl]-2-[1-(pyrimidin-5-yl)azetidin-3-yl]ethanone]
20 | 96.8% | 0.00122 µM |  | CNc1nc(C)c(C)c2c1CN(C(=O)OC1CN(c3cccnc3)C1)C2 [Example 5, 1-(Pyridin-3-yl)azetidin-3-yl 6,7-dimethyl-4-(methylamino)-1,3-dihydro-2H-pyrrolo[3,4-c]pyridine-2-carboxylate]
21 |  | 0.000838 µM | 102^b % | CNc1nc(C)c(C)c2c1CN(C(=O)C[C@@H]1C[C@H]1c1ccc(F)nc1)C2 (single isomer, unassigned) [Example 16, 1-[6,7-dimethyl-4-(methylamino)-1,3-dihydro-2H-pyrrolo[3,4-c]pyridin-2-yl]-2-[trans-2-(6-fluoropyridin-3-yl)cyclopropyl]ethanone]
